Legend:
[1] = biological target: T1, LRRK2 kinase in SH-SY5Y cells over-expressing recombinant full length LRRK2 (Homo sapiens, UniProt Q5S007); test: Recombinant cellular LRRK2 AlphaScreen assay (LRRK2 Ser935 phosphorylation); format: cell-based; conditions: 60 min
T1 construct: A BacMam virus expressing full length recombinant LRRK2 was purchased from Invitrogen; host or cells: SH-SY5Y human neuroblastoma cells transduced with BacMam LRRK2 virus
How it was run: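 SH-SY5Y cells transduced with BacMam full-length LRRK2 (MOI 50) for 24 h, then treated 60 min at 37 °C with compound (11-point 1:4 series, top 10 uM, 0.1% DMSO). Lysates probed by AlphaScreen for pSer935 vs total LRRK2; values fitted to a sigmoidal dose-response model.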

human hepatocytes = test: Metabolic stability assay in hepatocytes; format: in vitro ADME; conditions: 0.5 μM test compound, intrinsic clearance
Procedure: c. Metabolic Stability Assay
Metabolic stability of compounds of the invention was evaluated in hepatocytes from human and preclinical species (e.g. rat). A test compound (0.5 μM) was incubated with 0.5 million viable hepatocytes at 37° C. in a 95% humidified incubator supplied with 5% CO2. 7-ethoxycoumarin was used as positive control and was treated in the same manner as the test compound. The incubation samples were gently mixed at 150 rpm. Incubation medium was Williams' Medium E containing 2 mM GlutaMAX™ and 25 mM HEPES. Samples were removed from incubation at a specified time interval (tx): 0, 15, 30, 60, 90 and 120 min. Reactions were terminated by adding equal volume of ice-cold acetonitrile/methanol/acetic acid (80/20/1, v/v/v) containing an internal standard (e.g. 100 ng/mL to butamide as internal standard). […] The instrument responses of the test compound and the internal standard were measured using a compound specific LC/MS/MS methodology. The percentage of remaining test compound is calculated from the peak area ratio between the remaining test compound after incubation (tx) and the test compound peak area at the beginning of incubation (tx=0 min).
The half-life (t1/2) is calculated using the following equation: […]
Metabolic stability of a test compound is expressed as Intrinsic Clearance (Clint) and is calculated from the half-life (t1/2) using the following equation: […]

[2] = biological target: T2, full length G2019 human LRRK2 (Homo sapiens, UniProt Q5S007, R50H); test: Full length G2019 human LRRK2 inhibition mass spectrometry assay; format: biochemical; conditions: LRRKtide to phospho-LRRKtide conversion, RapidFire MS, 2 mM ATP
T2 construct: made in house; host or cells: HEK293 6E cells transduced with BacMam virus (virus generated in Sf9 cells)
How it was run: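 Purified full-length Flag-tagged G2019 LRRK2, ~25 nM, with 25 μM LRRKtide and 2 mM ATP in 50 mM Hepes pH 7.2, 10 mM MgCl2, 150 mM NaCl, 1 h at room temperature. Quenched with formic acid; phospho- and unphosphorylated LRRKtide measured by RapidFire MS. pIC50 from 4-parameter fit of % conversion, 11 points, top 100 μM.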

T2 sequence (Q5S007 with tags, fused parts or gaps R50H): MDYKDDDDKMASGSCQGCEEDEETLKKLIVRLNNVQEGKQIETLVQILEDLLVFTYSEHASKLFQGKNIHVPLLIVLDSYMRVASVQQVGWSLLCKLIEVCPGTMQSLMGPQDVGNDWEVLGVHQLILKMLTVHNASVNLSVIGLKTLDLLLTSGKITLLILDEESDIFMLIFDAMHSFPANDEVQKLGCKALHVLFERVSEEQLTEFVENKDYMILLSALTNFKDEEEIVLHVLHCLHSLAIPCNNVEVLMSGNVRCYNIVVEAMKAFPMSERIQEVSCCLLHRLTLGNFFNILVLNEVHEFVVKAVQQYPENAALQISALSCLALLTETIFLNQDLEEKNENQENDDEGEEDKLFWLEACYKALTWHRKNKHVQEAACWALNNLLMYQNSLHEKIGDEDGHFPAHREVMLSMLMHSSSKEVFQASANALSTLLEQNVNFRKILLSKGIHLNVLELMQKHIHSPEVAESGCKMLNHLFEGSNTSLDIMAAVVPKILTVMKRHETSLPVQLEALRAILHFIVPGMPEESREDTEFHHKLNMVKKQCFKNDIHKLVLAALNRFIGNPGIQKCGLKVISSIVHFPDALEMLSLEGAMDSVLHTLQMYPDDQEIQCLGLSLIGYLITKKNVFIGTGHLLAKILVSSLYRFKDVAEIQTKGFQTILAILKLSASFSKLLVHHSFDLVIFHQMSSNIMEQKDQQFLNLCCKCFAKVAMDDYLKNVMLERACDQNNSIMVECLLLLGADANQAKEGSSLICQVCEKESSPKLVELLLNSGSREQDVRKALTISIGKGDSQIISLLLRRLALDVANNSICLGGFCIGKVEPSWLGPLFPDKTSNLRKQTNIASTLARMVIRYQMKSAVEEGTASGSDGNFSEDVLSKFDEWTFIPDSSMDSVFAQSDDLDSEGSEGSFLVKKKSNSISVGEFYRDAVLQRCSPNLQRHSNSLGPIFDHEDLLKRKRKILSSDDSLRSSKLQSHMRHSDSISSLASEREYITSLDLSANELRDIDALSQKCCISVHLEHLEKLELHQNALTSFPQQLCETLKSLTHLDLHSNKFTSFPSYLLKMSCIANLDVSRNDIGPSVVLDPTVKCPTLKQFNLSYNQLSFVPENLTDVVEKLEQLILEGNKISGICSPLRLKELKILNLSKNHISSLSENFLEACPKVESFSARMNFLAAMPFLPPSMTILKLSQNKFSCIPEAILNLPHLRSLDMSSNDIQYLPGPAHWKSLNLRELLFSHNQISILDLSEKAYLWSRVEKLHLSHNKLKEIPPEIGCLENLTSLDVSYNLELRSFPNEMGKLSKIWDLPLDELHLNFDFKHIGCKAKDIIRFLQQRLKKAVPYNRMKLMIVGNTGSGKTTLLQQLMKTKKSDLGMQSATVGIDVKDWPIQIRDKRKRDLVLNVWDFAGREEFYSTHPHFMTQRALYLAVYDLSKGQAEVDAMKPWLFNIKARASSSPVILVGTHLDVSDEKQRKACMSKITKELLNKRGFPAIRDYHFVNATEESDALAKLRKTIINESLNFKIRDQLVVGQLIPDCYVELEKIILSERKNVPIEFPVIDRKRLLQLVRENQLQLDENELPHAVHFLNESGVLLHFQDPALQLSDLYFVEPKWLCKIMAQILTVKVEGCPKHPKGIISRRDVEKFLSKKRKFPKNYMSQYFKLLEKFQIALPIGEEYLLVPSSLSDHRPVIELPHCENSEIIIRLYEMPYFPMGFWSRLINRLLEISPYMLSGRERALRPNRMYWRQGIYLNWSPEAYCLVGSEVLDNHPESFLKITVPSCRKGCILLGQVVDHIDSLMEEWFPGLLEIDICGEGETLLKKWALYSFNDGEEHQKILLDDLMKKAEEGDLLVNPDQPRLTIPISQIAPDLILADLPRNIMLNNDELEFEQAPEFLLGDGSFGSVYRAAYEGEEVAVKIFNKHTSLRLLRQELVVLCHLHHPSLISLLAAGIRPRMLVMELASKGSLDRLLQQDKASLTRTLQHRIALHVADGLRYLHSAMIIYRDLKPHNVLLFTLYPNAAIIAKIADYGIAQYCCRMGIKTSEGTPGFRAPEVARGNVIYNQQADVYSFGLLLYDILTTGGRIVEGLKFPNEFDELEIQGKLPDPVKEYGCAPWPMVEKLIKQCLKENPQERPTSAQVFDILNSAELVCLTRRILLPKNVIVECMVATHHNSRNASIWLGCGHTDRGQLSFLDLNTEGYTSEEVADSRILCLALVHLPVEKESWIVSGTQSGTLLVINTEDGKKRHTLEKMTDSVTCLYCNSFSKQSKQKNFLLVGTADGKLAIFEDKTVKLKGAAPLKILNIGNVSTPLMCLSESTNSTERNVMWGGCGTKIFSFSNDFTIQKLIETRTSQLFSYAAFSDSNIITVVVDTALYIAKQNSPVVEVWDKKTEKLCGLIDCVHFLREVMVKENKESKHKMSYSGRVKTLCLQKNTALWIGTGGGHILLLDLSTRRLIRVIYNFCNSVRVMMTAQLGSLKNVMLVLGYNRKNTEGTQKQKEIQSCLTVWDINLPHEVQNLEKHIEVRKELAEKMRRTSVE
T1 sequence (Q5S007 whole entry): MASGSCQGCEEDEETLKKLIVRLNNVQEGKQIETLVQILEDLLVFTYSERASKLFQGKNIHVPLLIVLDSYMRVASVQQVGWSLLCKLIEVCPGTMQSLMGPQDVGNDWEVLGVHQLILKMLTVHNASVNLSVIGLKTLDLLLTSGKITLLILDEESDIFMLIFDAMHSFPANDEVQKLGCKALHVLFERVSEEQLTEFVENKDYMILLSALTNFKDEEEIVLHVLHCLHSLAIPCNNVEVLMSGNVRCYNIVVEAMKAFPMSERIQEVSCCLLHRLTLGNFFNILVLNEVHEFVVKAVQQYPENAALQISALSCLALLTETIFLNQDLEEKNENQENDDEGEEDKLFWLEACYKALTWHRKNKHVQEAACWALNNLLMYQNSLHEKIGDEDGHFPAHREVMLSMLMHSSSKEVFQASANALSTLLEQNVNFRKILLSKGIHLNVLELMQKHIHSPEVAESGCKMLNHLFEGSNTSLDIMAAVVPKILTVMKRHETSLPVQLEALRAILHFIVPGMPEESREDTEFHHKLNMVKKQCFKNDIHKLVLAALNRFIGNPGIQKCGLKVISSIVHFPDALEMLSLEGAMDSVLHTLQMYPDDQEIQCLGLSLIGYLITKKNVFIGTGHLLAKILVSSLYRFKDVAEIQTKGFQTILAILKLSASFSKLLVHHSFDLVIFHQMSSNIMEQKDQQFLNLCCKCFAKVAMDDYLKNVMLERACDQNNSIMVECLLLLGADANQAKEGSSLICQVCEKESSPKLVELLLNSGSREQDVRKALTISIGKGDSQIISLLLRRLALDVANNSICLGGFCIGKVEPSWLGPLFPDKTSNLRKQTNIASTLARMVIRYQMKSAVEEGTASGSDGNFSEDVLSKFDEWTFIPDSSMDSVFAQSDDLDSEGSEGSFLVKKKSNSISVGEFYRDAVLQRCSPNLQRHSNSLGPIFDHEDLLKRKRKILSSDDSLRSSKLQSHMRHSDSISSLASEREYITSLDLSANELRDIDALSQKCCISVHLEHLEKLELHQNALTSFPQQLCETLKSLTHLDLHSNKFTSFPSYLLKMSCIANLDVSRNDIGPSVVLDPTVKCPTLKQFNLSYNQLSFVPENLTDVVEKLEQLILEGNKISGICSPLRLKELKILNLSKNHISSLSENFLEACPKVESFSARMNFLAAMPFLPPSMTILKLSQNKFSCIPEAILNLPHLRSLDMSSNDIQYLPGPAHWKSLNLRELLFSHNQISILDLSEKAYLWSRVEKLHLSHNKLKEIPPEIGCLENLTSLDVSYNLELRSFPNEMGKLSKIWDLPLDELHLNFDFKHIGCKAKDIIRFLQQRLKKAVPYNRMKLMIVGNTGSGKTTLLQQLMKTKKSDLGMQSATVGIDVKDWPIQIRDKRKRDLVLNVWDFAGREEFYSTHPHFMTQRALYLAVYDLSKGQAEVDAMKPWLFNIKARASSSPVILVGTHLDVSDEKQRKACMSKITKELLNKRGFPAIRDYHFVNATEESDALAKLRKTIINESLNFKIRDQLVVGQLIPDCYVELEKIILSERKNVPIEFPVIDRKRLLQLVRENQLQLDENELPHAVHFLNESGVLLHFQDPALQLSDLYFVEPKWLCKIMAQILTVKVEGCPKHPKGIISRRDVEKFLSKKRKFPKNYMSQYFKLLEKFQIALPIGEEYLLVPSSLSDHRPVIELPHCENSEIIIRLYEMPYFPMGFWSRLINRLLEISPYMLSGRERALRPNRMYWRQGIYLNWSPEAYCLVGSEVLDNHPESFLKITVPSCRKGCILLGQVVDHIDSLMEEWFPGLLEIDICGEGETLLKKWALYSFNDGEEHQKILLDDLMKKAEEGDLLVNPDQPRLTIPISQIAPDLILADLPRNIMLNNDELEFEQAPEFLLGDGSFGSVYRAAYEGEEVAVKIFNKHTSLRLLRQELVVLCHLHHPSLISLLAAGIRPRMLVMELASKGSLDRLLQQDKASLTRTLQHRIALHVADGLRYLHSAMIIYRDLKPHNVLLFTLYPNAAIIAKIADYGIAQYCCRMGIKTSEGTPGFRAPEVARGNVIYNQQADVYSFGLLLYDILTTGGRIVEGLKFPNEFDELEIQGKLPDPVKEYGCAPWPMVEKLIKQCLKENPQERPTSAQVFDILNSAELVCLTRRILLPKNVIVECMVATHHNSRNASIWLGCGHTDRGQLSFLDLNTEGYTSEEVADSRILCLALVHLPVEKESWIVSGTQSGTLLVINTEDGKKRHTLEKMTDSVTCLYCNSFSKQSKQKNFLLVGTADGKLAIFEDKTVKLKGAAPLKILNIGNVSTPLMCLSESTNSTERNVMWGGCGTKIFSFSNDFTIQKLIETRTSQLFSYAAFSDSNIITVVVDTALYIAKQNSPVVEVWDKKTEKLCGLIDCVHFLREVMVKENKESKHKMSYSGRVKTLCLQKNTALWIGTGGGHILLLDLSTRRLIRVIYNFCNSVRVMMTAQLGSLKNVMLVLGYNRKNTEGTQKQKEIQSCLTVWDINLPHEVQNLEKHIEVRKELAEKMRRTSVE

Compound	IC50 [1] [nM]	Clint (human) (human hepatocytes) [mL/min/g]	IC50 [2] [nM]
Cc1c2c(nn1C(=O)C1CC1)OCCCNc1nc(ncc1Cl)N2 [E362, 14-Chloro-5-cyclopropanecarbonyl-4-methyl-8-oxa-2,5,6,12,16, 17-hexaazatricyclo[11.3.1.0^3,7]heptadeca-1(16),3,6,13(17),14-pentaene]	≤ 100	> 10	
C[C@@H]1CCOc2nn(C3CCOCC3)c(C(F)(F)F)c2Nc2ncc(Cl)c(n2)N1 [E416, (11R)-14-Chloro-11-methyl-5-(oxan-4-yl)-4-(trifluoromethyl)-8-oxa-2,5,6,12,16,17-hexaazatricyclo[11.3.1.0^3,7]heptadeca-1(16),3,6,13(17),14-pentaene]	≤ 100		≤ 100
Cc1c2c(nn1C(C)(C)C)OCC[C@@H](C)Nc1nc(ncc1Cl)N2 [E417, (11R)-5-tert-Butyl-14-chloro-4,11-dimethyl-8-oxa-2,5,6,12,16,17-hexaazatricyclo[11.3.1.0^3,7]heptadeca-1(16),3,6,13(17),14-pentaene]	≤ 100		≤ 100
Cc1c2c(nn1C1CCOCC1(C)C)OCC[C@@H](C)Nc1nc(ncc1Cl)N2 (stereo partly drawn) [E421, (11R)-14-Chloro-5-(3,3-dimethyloxan-4-yl)-4,11-dimethyl-8-oxa-2,5,6,12,16,17-hexaazatricyclo[11.3.1.0^3,7]heptadeca-1(16),3,6,13(17),14-pentaene]	≤ 100		≤ 100
C[C@@H]1CCOc2nn(C3CN(C4COC4)C3)c(Cl)c2Nc2ncc(Cl)c(n2)N1 [E427, (11R)-4,14-Dichloro-11-methyl-5-[1-(oxetan-3-yl)azetidin-3-yl]-8-oxa-2,5,6,12,16,17-hexaazatricyclo[11.3.1.0^3,7]heptadeca-1(16),3,6,13(17),14-pentaene]	≤ 100		≤ 100
Cc1c2c(nn1C1CCOCC1)OCCCNc1nc(ncc1C(C)C)N2 [E428, 4-Methyl-5-(oxan-4-yl)-14-(propan-2-yl)-8-oxa-2,5,6,12,16,17-hexaazatricyclo[11.3.1.0^3,7]heptadeca-1(16),3,6,13(17),14-pentaene]	> 10000		≤ 10000
C=C(C)c1cnc2nc1NCCCOc1nn(C3CCOCC3)c(C)c1N2 [E429, 4-Methyl-5-(oxan-4-yl)-14-(prop-1-en-2-yl)-8-oxa-2,5,6,12,16,17-hexaazatricyclo[11.3.1.0^3,7]heptadeca-1(16),3,6,13(17),14-pentaene]	> 10000		≤ 10000
CCc1[nH]nc2c1Nc1ncc(Cl)c(n1)N[C@H](C)CCO2 [E430, (11R)-14-Chloro-4-ethyl-11-methyl-8-oxa-2,5,6,12,16,17-hexaazatricyclo[11.3.1.0^3,7]heptadeca-1(16),3,6,13(17),14-entaene]	≤ 100		≤ 100
Cc1[nH]nc2c1Nc1ncc(Br)c(n1)NCCCO2 [E432, 14-Bromo-4-methyl-8-oxa-2,5,6,12,16,17-hexaazatricyclo[11.3.1.0^3,7]heptadeca-1(16),3,6,13(17),14-pentaene]	≤ 100		≤ 100
Cc1[nH]nc2c1Nc1ncc(C(F)(F)F)c(n1)NCCCO2 [E433, 4-Methyl-14-(trifluoromethyl)-8-oxa-2,5,6,12,16,17-hexaazatricyclo[11.3.1.0^3,7]heptadeca-1(16),3,6,13(17),14-pentaene]	≤ 100		≤ 100
FC1(F)CN(C2COC2)CCC1n1nc2c(c1Cl)Nc1ncc(Cl)c(n1)NCCCO2 (stereo not shown) [E446, 4,14-Dichloro-5[3,3-difluoro-1-(oxetan-3-yl)piperidin-4-yl]-8-oxa-2,5,6,12,16,17-hexaazatricyclo[11.3.1.0^3,7]heptadeca-1(16),3,6,13(17),14-pentaene]	≤ 100		≤ 100

Source: patent US20200392158A1, “INHIBITORS OF LEUCINE RICH REPEAT KINASE 2” (GLAXOSMITHKLINE INTELLECTUAL PROPERTY DEVELOPMENT LIMITED, priority 2017, published 2020)
